One assay addresses T1, caALK4 (Homo sapiens, UniProt P36896).
T1 sequence (P36896 1-505 T206D): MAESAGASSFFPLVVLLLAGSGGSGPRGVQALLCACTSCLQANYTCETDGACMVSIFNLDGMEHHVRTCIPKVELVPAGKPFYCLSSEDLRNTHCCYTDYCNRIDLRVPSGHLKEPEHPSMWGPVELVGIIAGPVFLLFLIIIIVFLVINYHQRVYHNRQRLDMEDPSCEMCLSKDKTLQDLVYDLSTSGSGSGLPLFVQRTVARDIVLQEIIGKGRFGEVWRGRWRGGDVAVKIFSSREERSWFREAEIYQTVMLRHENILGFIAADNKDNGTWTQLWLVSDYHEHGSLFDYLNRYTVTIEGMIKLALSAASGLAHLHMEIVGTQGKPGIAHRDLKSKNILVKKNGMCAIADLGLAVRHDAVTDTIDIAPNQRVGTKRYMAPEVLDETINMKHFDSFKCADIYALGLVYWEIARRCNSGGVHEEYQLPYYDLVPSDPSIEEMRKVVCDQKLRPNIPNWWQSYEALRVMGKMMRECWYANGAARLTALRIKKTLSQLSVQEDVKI
Briefly: Luciferase reporter assay constitutively active ALK4. Conditions: read-out: Cell Based Assay caALK4 IC50. An excerpt: C2Cl2 […] cells stably transfected with BMP responsive element from the Id promoter fused to luciferase reporter gene (BRE-Luc) were generously provided by Dr. Peter ten Dijke (Leiden University Medical Center, NL) following the methods described by Zilberberg et al., BMC cell biology 2007, 8, 41-50. Human embryonic kidney 293T cells stably transfected with the TGF-β responsive element from the PAI-1 promoter fused to luciferase reporter gene (CAGA-Luc) were generously provided by Dr. Howard Weiner (Brigham and Women's Hospital, Boston, Mass.) following the methods described by Oida et al., PloS one 2011, 6, e18365. C2Cl2 Bre-Luc and 293T CAGA-Luc cells were seeded in DMEM supplemented with 2% FBS at 20,000 cells per well in tissue culture treated 96-well plates (Costar® 3610; Corning). The cells were incubated for 1 h (37° C. and 10% CO2) and allowed to settle and attach. Compounds of interest or DMSO were diluted in DMEM and added at final compound concentrations of 1 nM to 10 μM. Cells were then incubated for 30 min. Adenovirus expressing constitutively active BMP and TGF-β type I receptors (Ad.caALK1-5), generously provided by Dr. Akiko Hata (University of to California at San Francisco), were added to achieve a multiplicity of infection (MOI) of 100. Plates were incubated overnight at 37° C. Cell viability was assayed with an MIT (3-(4,5-dimethylthiazol-2-yl)-2,5-diphenyl tetrazolium bromide) colorimetric assay (Promega) per the manufacturer's instructions. Media was discarded, and firefly luciferase activity was measured (Promega) according to manufacturer's protocol. Light output was measured using a Spectramax L luminometer (Molecular Devices) with an integration time of one second per well. Data was normalized to 100% of incremental BRE-Luc activity due to adenoviruses specifying caALK1, 2, or 3, or the incremental CAGA-Luc activity due to adenoviruses specifying caALK4 or 5.
(In a reporter assay the amount or activity of a reporter protein is the signal.)

The target in another assay is PDGFRα (Homo sapiens, UniProt P16234). Briefly: Kinome profiling PDGFRα. Particulars: read-out: Inhibitory activity PDGFRα; for inhibition at 0.1 µM: 100 nM. It is filed as biochemical. On the procedure: (§1) . The kinome-wide selectivity was determined following the methods previously reported by Mohedas et al., ACS Chem Biol 2013, 8, 1291-1302 and Sanvitale et al., PLoS One 2013, 8, e62721.

Another assay concerns the target BRAF (Homo sapiens, UniProt P15056). Briefly: Kinome profiling BRAF. It is filed as biochemical. Particulars: read-out: Inhibitory activity BRAF; for inhibition at 0.1 µM: 100 nM. On the procedure:
as §1

The target in the next assay is ERB-B2 (Homo sapiens, UniProt P04626). In words: Kinome profiling ERB-B2. It is filed as biochemical. Particulars: read-out: Inhibitory activity ERB-B2; for inhibition at 0.1 µM: 100 nM. On the procedure:
as §1

Another assay concerns the target T2, P38γ (Homo sapiens, UniProt P53778).
T2 sequence (P53778 1-367): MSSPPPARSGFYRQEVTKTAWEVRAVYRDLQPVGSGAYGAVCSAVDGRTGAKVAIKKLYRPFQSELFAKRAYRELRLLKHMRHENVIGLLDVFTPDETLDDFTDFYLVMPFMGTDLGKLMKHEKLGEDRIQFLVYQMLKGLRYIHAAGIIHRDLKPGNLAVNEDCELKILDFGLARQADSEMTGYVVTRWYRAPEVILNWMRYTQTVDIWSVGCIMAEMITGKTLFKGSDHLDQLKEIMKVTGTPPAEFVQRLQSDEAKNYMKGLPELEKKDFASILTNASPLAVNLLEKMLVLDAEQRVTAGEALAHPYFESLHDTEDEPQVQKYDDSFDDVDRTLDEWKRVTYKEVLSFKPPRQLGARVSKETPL
Briefly: Kinome profiling P38γ. Type of assay: biochemical. Conditions: read-out: Inhibitory activity P38γ; for inhibition at 0.1 µM: 100 nM. The procedure:
as §1

The next assay addresses T3, PRAK (Homo sapiens, UniProt Q8IW41).
T3 sequence (Q8IW41 1-473): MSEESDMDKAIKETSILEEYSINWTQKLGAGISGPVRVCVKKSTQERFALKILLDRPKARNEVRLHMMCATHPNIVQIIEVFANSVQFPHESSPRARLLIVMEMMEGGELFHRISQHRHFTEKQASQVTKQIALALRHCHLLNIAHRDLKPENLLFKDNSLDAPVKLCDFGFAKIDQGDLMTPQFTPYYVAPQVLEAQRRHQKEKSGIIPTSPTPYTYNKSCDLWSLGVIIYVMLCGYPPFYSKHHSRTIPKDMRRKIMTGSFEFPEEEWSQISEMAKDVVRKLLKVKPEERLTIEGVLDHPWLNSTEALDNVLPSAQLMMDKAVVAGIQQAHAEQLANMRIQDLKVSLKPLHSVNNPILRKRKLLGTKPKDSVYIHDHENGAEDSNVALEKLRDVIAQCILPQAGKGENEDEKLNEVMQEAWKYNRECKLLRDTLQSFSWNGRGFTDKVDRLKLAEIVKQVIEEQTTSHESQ
In words: Kinome profiling PRAK. It is filed as biochemical. Conditions: read-out: Inhibitory activity PRAK; for inhibition at 0.1 µM: 100 nM. The procedure:
as §1

The target in a further assay is MSSK1 (Homo sapiens, UniProt Q9UPE1). In words: Kinome profiling MSSK1. Type of assay: biochemical. Conditions: read-out: Inhibitory activity MSSK1; for inhibition at 0.1 µM: 100 nM. On the procedure: as §1
The next assay deals with JAK2 (Homo sapiens, UniProt O60674). Briefly: Kinome profiling JAK2. Type of assay: biochemical. Particulars: read-out: Inhibitory activity JAK2; for inhibition at 0.1 µM: 100 nM. On the procedure:
as §1

In general, pIC50 refers to −log10 of the IC50, conventionally taken in molar units.

pIC50: −log10 of the molar value.

ERB-B2, sequence (P04626 23-1255): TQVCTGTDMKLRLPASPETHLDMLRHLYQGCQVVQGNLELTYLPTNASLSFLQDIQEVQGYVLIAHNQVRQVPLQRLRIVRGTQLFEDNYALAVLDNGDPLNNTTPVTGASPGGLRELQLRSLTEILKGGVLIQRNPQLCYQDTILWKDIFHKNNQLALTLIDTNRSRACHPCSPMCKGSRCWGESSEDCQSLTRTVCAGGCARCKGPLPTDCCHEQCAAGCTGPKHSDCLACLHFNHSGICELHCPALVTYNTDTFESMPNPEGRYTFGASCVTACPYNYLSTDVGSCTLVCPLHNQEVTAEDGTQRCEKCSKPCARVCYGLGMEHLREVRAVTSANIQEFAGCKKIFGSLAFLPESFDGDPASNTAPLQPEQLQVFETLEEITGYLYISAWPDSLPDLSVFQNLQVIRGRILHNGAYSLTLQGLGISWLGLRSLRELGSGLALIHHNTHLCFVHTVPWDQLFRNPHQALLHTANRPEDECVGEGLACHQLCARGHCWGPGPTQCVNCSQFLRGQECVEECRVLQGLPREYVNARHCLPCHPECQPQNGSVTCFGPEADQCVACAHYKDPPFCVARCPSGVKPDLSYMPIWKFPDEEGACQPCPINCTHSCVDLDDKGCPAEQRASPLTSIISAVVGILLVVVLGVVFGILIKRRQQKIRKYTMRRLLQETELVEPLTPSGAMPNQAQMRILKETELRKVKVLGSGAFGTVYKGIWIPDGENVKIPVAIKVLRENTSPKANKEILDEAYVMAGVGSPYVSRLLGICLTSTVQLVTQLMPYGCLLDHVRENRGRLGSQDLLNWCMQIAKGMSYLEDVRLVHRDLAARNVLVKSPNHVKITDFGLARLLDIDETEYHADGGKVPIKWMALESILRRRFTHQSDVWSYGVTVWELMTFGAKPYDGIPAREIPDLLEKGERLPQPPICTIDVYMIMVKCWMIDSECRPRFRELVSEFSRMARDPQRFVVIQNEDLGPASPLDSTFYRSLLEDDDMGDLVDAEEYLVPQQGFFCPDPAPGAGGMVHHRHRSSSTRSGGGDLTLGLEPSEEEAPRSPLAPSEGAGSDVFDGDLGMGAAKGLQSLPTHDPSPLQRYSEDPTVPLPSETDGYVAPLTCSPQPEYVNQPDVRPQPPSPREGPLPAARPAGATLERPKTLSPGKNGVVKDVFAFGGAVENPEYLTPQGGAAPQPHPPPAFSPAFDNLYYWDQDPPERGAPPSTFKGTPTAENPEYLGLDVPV
PDGFRα, sequence (P16234 24-1089): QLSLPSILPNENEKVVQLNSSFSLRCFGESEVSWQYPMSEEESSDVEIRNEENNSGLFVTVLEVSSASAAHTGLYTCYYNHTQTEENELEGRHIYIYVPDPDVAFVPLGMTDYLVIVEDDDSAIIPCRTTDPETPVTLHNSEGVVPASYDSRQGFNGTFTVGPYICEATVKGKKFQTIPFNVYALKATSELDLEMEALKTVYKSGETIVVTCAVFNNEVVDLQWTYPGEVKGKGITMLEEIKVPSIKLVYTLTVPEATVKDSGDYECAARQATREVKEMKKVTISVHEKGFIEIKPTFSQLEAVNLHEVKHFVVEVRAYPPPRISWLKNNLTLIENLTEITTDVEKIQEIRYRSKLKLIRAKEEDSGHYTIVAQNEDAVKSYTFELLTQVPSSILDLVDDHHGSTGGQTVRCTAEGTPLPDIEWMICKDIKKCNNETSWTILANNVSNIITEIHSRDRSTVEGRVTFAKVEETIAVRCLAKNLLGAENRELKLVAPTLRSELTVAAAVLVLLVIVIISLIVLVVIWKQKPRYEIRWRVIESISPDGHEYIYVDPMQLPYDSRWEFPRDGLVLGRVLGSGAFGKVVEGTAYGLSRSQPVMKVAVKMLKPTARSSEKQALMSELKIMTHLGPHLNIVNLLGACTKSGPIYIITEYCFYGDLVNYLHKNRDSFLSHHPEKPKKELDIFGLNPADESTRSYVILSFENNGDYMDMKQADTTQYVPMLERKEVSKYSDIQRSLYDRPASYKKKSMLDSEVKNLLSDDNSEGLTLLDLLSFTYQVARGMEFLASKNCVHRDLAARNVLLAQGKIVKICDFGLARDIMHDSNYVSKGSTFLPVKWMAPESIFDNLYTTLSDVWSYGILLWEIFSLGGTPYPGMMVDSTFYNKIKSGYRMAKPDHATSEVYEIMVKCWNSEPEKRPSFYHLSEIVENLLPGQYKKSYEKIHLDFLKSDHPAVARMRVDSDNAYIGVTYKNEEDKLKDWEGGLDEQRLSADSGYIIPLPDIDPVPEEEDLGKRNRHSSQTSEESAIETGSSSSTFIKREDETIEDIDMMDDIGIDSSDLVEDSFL
JAK2, sequence (O60674 whole entry): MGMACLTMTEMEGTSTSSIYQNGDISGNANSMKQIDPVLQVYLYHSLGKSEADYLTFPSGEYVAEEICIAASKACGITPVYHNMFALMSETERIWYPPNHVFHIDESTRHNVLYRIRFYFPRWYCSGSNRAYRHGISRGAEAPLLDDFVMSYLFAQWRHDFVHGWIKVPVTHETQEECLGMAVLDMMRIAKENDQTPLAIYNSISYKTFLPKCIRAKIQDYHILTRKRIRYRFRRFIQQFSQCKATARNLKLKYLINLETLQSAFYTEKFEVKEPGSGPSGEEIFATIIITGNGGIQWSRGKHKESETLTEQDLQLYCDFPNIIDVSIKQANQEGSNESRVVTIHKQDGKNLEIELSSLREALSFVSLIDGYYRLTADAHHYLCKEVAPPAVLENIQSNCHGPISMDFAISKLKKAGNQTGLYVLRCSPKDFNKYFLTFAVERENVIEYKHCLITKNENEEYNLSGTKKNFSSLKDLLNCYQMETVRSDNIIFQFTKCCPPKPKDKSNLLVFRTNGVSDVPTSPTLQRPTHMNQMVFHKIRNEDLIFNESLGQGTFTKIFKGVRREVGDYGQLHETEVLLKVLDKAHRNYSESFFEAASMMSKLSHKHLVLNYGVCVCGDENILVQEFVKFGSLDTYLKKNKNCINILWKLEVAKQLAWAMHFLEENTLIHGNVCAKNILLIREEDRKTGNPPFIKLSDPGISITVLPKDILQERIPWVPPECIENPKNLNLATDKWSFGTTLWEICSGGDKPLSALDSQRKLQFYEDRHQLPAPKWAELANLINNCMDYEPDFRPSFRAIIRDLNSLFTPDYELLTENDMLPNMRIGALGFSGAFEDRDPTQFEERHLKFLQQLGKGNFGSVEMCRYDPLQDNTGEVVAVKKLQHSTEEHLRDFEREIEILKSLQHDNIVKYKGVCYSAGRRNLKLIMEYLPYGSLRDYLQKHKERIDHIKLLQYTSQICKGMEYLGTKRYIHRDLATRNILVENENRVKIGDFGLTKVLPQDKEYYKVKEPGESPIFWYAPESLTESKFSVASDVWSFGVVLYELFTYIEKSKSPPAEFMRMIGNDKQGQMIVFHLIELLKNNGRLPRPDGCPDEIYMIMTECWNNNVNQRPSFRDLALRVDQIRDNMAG
BRAF, sequence (P15056 whole entry): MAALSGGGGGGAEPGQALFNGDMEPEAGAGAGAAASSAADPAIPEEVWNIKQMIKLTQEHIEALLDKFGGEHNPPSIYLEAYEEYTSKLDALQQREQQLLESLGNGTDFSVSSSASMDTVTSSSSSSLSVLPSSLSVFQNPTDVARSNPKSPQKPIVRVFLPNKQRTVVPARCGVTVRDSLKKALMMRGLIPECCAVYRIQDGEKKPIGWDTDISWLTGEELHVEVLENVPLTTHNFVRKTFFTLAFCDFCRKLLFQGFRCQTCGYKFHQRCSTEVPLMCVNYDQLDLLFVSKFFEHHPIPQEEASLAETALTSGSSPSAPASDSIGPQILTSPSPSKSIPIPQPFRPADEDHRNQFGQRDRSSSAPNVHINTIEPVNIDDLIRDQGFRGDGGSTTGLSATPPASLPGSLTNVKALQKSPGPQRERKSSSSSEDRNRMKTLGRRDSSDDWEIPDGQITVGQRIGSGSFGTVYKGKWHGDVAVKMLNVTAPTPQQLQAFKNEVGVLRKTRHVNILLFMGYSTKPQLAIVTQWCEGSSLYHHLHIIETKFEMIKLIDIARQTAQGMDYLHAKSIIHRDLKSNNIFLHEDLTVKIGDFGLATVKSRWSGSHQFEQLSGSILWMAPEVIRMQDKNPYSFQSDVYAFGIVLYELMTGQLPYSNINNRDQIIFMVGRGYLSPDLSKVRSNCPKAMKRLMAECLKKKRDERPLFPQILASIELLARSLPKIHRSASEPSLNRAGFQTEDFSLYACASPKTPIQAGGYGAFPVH
MSSK1, sequence (Q9UPE1 whole entry): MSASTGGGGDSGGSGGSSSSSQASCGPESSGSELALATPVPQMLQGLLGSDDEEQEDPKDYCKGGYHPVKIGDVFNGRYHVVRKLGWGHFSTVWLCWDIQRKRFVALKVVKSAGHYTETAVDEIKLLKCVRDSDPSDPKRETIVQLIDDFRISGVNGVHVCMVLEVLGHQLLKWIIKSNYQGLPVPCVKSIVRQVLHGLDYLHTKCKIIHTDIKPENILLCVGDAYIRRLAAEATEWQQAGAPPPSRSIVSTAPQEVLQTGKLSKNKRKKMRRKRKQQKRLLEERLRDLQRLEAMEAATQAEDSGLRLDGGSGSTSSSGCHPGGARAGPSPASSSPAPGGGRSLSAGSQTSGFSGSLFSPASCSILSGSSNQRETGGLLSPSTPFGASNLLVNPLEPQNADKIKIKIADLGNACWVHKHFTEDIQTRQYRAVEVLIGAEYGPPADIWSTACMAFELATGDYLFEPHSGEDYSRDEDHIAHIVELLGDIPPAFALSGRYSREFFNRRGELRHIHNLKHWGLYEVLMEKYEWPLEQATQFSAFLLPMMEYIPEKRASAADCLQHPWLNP

In the case of `COc1cc(-c2cc(-c3ccc(N4CCNCC4)cc3)cnc2N)cc(OC)c1OC` [Compound 15, 5-(4-(piperazin-1-yl)phenyl)-3-(3,4,5-trimethoxyphenyl)pyridin-2-amine], the pIC50 at caALK4 was 7.60. Also, the inhibition at 0.1 µM at PDGFRα was 39%; on BRAF it was 8%; on ERB-B2, 0%; on P38γ, 2%; on PRAK it was 1%; on MSSK1, -2%. Also, at JAK2, the inhibition at 0.1 µM was 0%. Also, the inhibition at 1 µM on PDGFRα came to 76%; at BRAF it was 27%; at ERB-B2 it was 5%; on P38γ, 1%; at PRAK, 1%; at MSSK1, 0%. Moreover, the inhibition at 1 µM at JAK2 was 0%.
`COc1cc(-c2cc(-c3ccc(N4CCNCC4)cc3)cnc2C)cc(OC)c1OC` [Compound 10, 1-(4-(6-methyl-5-(3,4,5-trimethoxyphenyl)pyridin-3-yl)phenyl)piperazine]: the pIC50 on caALK4 is 5.26. Further, the inhibition at 0.1 µM on PDGFRα is 9%; on BRAF it was 0%; at ERB-B2 it was 0%; on P38γ it was -2%; at PRAK, 0%; on MSSK1, 2%. Besides, the inhibition at 0.1 µM at JAK2 came out at 5%. In addition, the inhibition at 1 µM on PDGFRα was 40%; on BRAF, 1%; on ERB-B2, 3%; on P38γ, 1%; on PRAK it was 3%; at MSSK1 it was 2%. Also, at JAK2, the inhibition at 1 µM turned out to be 4%.

Values taken from patent US20170190705A1, “Compositions and Methods for Inhibiting BMP” (THE BRIGHAM AND WOMAN'S HOSPITAL, INC., priority 2014, published 2017).
